# In patent publication US20220401514A1, “ANTIMICROBIAL, BACTERIOPHAGE-DERIVED POLYPEPTIDES AND THEIR USE AGAINST GRAM-NEGATIVE AND ACID-FAST BACTERIA” (CONTRAFECT CORPORATION, priority 2019, published 2022):
# Columns and labels:
# [1] = tested on: Gram-negative with varying susceptibility to imipenem and relebactam; assay: MIC against CDC Imipenem/Relebactam panel (n = 28); assay type: cell-based
# Method: MIC values were determined using the methodology described above, i.e., the standard broth microdilution reference method defined by CLSI.
# See wwwn.cdc.gov/ARIsolateBank/Panel/PanelDetail?ID=10.
# [2] = tested on: inner membrane of Gram-negative bacteria (including P. aeruginosa, E. cloacae, K. pneumoniae, E. coli, and A. baumannii); assay: Inner membrane depolarization, diSC3-5 release; assay type: cell-based
# Text: The mechanism of action of Chp peptides disclosed herein can also be evaluated by measuring the depolarization of the inner membrane of Gram-negative bacteria. […] Upon permeabilization of the outer membrane, the ability of Chp peptides to induce dissipation of the cytoplasmic membrane electrical potential gradient (Δψ) may be examined, for example by following the release of 3,3′-dipropylthiadicarbocyanine (diSC3-5) as a function of time compared to an untreated control. DiSC3-5 is a fluorophore that is a caged cation concentrated within the bacterial inner membrane and under the influence of the bacterial membrane electrical potential gradient. At high concentrations, diSC3-5 self-quenches, leading to the suppression of fluorescence. When the inner membrane deteriorates or becomes leaky for cations, including protons, the A it dissipates, which leads to a release of diSC3-5 and a subsequent increase in fluorescence.
# [3] = tested on: Pseudomonas aeruginosa isolates; assay: MIC against CDC Pseudomonas aeruginosa panel (n = 55); assay type: cell-based
# Salmonella typhimurium = assay: MIC against Salmonella typhimurium; assay type: cell-based; details: Salmonella typhimurium
# [4] = tested on: Gram-negative bacteria (including P. aeruginosa, E. cloacae, K. pneumoniae, E. coli, and A. baumannii); assay: Propidium iodide uptake; assay type: cell-based
# Text: The damage caused by the Chp peptides disclosed herein to the outer and inner membranes of Gram-negative bacteria can also be assessed with impermeable dyes such as propidium iodide. […] AGENTS CHEMO. 2012; 56:5698-5708.
# LPS = assay: Endotoxin neutralization, limulus amoebocyte lysate (LAL) enzyme assay, LPS binding; assay type: biochemical; details: LPS 0.8 EU/mL
# Method: CHEM. […] The standard reference samples contained only LPS dissolved in pyrogen-free water. Solutions were mixed well and incubated at 24° C. for 1 hour, and the manufacturers' test procedure for quantitative detection of endotoxins was followed.
# [5] = tested on: outer membrane of Gram-negative bacteria (including P. aeruginosa, E. cloacae, K. pneumoniae, E. coli, and A. baumannii); assay: Outer membrane permeabilization, NPN uptake; assay type: cell-based
# Text: NPN is largely excluded by intact Gram-negative bacteria, but enhanced uptake of NPN may occur in cells having a damaged or permeable outer membrane. NPN fluoresces strongly under hydrophobic conditions and weakly under aqueous conditions. Therefore, NPN's interaction with membrane phospholipids in the bacterial envelope increases its fluorescence signal and can be used as an indication of a compromised bacterial membrane and a measurement of the outer membrane permeability.
sequence,measurement,setting,value
MRLKMARRRYRLPRRRSRRLFSRTALRMHPRNRLRRIMRGGIRF [Chp2],MIC,"[1]; Bank No. 0501, Enterobacter cloacae",0.5 µg/mL
same,MIC,"[1]; Bank No. 0502, Enterobacter cloacae",0.5 µg/mL
same,MIC,"[1]; Bank No. 0504, Klebsiella pneumoniae",0.5 µg/mL
same,MIC,"[1]; Bank No. 0505, Klebsiella pneumoniae",1 µg/mL
same,MIC,"[1]; Bank No. 0506, Klebsiella pneumoniae",1 µg/mL
same,MIC,"[1]; Bank No. 0507, Klebsiella pneumoniae",0.5 µg/mL
same,MIC,"[1]; Bank No. 0508, Pseudomonas aeruginosa",1 µg/mL
same,MIC,"[1]; Bank No. 0509, Pseudomonas aeruginosa",1 µg/mL
same,MIC,"[1]; Bank No. 0510, Pseudomonas aeruginosa",0.5 µg/mL
same,MIC,"[1]; Bank No. 0511, Pseudomonas aeruginosa",0.5 µg/mL
same,MIC,"[1]; Bank No. 0512, Pseudomonas aeruginosa",1 µg/mL
same,MIC,"[1]; Bank No. 0513, Pseudomonas aeruginosa",0.5 µg/mL
same,MIC,"[1]; Bank No. 0514, Pseudomonas aeruginosa",1 µg/mL
same,MIC,"[1]; Bank No. 0515, Pseudomonas aeruginosa",0.5 µg/mL
same,MIC,"[1]; Bank No. 0516, Pseudomonas aeruginosa",0.5 µg/mL
same,MIC,"[1]; Bank No. 0517, Serratia marcescens",> 8 µg/mL
same,MIC,"[1]; Bank No. 0518, Pseudomonas aeruginosa",1 µg/mL
same,MIC,"[1]; Bank No. 0519, Morganella morganii",ng
same,MIC,"[1]; Bank No. 0520, Serratia marcescens",> 8 µg/mL
same,MIC,"[1]; Bank No. 0521, Serratia marcescens",> 8 µg/mL
same,MIC,"[1]; Bank No. 0522, Klebsiella pneumoniae",0.5 µg/mL
same,MIC,"[1]; Bank No. 0523, Klebsiella pneumoniae",0.5 µg/mL
same,MIC,"[1]; Bank No. 0524, Klebsiella pneumoniae",1 µg/mL
same,MIC,"[1]; Bank No. 0525, Klebsiella pneumoniae",1 µg/mL
same,MIC,"[1]; Bank No. 0526, Pseudomonas aeruginosa",2 µg/mL
same,MIC,"[1]; Bank No. 0527, Pseudomonas aeruginosa",1 µg/mL
same,MIC,"[1]; Bank No. 0528, Pseudomonas aeruginosa",1 µg/mL
same,MIC,"[1]; Bank No. 0529, Pseudomonas aeruginosa",0.5 µg/mL
same,MIC50,[1]; Imipenem/Relebactam panel,0.5 µg/mL
same,MIC90,[1]; Imipenem/Relebactam panel,1 µg/mL
same,membrane depolarization (diSC3-5),[2],"dose-dependent increase in membrane depolarization, equivalent or superior to that of melittin, LL37, RI-18, and PMBN"
same,MIC,[3]; CDC Antibiotic-Resistant Bank No. 0229,0.5 µg/mL
same,MIC,[3]; CDC Antibiotic-Resistant Bank No. 0230,0.5 µg/mL
same,MIC,[3]; CDC Antibiotic-Resistant Bank No. 0231,0.5 µg/mL
same,MIC,[3]; CDC Antibiotic-Resistant Bank No. 0232,0.5 µg/mL
same,MIC,[3]; CDC Antibiotic-Resistant Bank No. 0233,0.5 µg/mL
same,MIC,[3]; CDC Antibiotic-Resistant Bank No. 0234,0.5 µg/mL
same,MIC,[3]; CDC Antibiotic-Resistant Bank No. 0235,0.5 µg/mL
same,MIC,[3]; CDC Antibiotic-Resistant Bank No. 0236,0.5 µg/mL
same,MIC,[3]; CDC Antibiotic-Resistant Bank No. 0237,0.5 µg/mL
same,MIC,[3]; CDC Antibiotic-Resistant Bank No. 0238,0.5 µg/mL
same,MIC,[3]; CDC Antibiotic-Resistant Bank No. 0239,1 µg/mL
same,MIC,[3]; CDC Antibiotic-Resistant Bank No. 0240,1 µg/mL
same,MIC,[3]; CDC Antibiotic-Resistant Bank No. 0241,1 µg/mL
same,MIC,[3]; CDC Antibiotic-Resistant Bank No. 0242,0.5 µg/mL
same,MIC,[3]; CDC Antibiotic-Resistant Bank No. 0243,0.5 µg/mL
same,MIC,[3]; CDC Antibiotic-Resistant Bank No. 0244,1 µg/mL
same,MIC,[3]; CDC Antibiotic-Resistant Bank No. 0245,0.5 µg/mL
same,MIC,[3]; CDC Antibiotic-Resistant Bank No. 0246,1 µg/mL
same,MIC,[3]; CDC Antibiotic-Resistant Bank No. 0247,1 µg/mL
same,MIC,[3]; CDC Antibiotic-Resistant Bank No. 0248,1 µg/mL
same,MIC,[3]; CDC Antibiotic-Resistant Bank No. 0249,1 µg/mL
same,MIC,[3]; CDC Antibiotic-Resistant Bank No. 0250,1 µg/mL
same,MIC,[3]; CDC Antibiotic-Resistant Bank No. 0251,1 µg/mL
same,MIC,[3]; CDC Antibiotic-Resistant Bank No. 0252,1 µg/mL
same,MIC,[3]; CDC Antibiotic-Resistant Bank No. 0253,1 µg/mL
same,MIC,[3]; CDC Antibiotic-Resistant Bank No. 0254,1 µg/mL
same,MIC,[3]; CDC Antibiotic-Resistant Bank No. 0255,1 µg/mL
same,MIC,[3]; CDC Antibiotic-Resistant Bank No. 0256,1 µg/mL
same,MIC,[3]; CDC Antibiotic-Resistant Bank No. 0257,1 µg/mL
same,MIC,[3]; CDC Antibiotic-Resistant Bank No. 0258,2 µg/mL
same,MIC,[3]; CDC Antibiotic-Resistant Bank No. 0259,1 µg/mL
same,MIC,[3]; CDC Antibiotic-Resistant Bank No. 0260,0.5 µg/mL
same,MIC,[3]; CDC Antibiotic-Resistant Bank No. 0261,1 µg/mL
same,MIC,[3]; CDC Antibiotic-Resistant Bank No. 0262,1 µg/mL
same,MIC,[3]; CDC Antibiotic-Resistant Bank No. 0263,1 µg/mL
same,MIC,[3]; CDC Antibiotic-Resistant Bank No. 0264,1 µg/mL
same,MIC,[3]; CDC Antibiotic-Resistant Bank No. 0265,1 µg/mL
same,MIC,[3]; CDC Antibiotic-Resistant Bank No. 0266,1 µg/mL
same,MIC,[3]; CDC Antibiotic-Resistant Bank No. 0267,1 µg/mL
same,MIC,[3]; CDC Antibiotic-Resistant Bank No. 0268,1 µg/mL
same,MIC,[3]; CDC Antibiotic-Resistant Bank No. 0269,1 µg/mL
same,MIC,[3]; CDC Antibiotic-Resistant Bank No. 0270,0.5 µg/mL
same,MIC,[3]; CDC Antibiotic-Resistant Bank No. 0271,1 µg/mL
same,MIC,[3]; CDC Antibiotic-Resistant Bank No. 0272,1 µg/mL
same,MIC,[3]; CDC Antibiotic-Resistant Bank No. 0763,1 µg/mL
same,MIC,[3]; CDC Antibiotic-Resistant Bank No. 0764,1 µg/mL
same,MIC,[3]; CDC Antibiotic-Resistant Bank No. 0765,1 µg/mL
same,MIC,[3]; CDC Antibiotic-Resistant Bank No. 0766,1 µg/mL
same,MIC,[3]; CDC Antibiotic-Resistant Bank No. 0767,1 µg/mL
same,MIC,[3]; CDC Antibiotic-Resistant Bank No. 0768,0.5 µg/mL
same,MIC,[3]; CDC Antibiotic-Resistant Bank No. 0769,1 µg/mL
same,MIC,[3]; CDC Antibiotic-Resistant Bank No. 0770,1 µg/mL
same,MIC,[3]; CDC Antibiotic-Resistant Bank No. 0771,1 µg/mL
same,MIC,[3]; CDC Antibiotic-Resistant Bank No. 0772,1 µg/mL
same,MIC,[3]; CDC Antibiotic-Resistant Bank No. 0773,1 µg/mL
same,MIC50,[3]; Pseudomonas aeruginosa panel,1 µg/mL
same,MIC90,[3]; Pseudomonas aeruginosa panel,1 µg/mL
same,MIC,Salmonella typhimurium,2 µg/mL
same,cell envelop permeability (propidium iodide uptake),[4],"dose-dependent increase in cell envelop permeability was equivalent to that of colistin, LL37, and melittin"
same,LPS binding,"LPS; […]-64 μg/mL, 24° C., 1 hour",demonstrate binding to LPS
same,% LPS Bound,LPS; peptide concentration 0.5 μg/mL,28.7%
same,% LPS Bound,LPS; peptide concentration 1 μg/mL,28.0%
same,% LPS Bound,LPS; peptide concentration 2 μg/mL,27.0%
same,% LPS Bound,LPS; peptide concentration 4 μg/mL,29.3%
same,% LPS Bound,LPS; peptide concentration 8 μg/mL,31.0%
same,% LPS Bound,LPS; peptide concentration 16 μg/mL,40.8%
same,% LPS Bound,LPS; peptide concentration 32 μg/mL,58.1%
same,% LPS Bound,LPS; peptide concentration 64 μg/mL,71.0%
same,outer membrane permeability (NPN uptake),[5],"dose-dependent increase in outer membrane permeability, equivalent to that of colistin, LL37, and melittin"
